Test: Ionizing radiation initiated polymerization of liposomes, by loss of monomer absorption intensity
Assay type: physicochemical
Conditions: for dependence of extent of polymerization on continuous or discontinuous exposure: ionizing radiation; for effect of dissolved oxygen on ionizing radiation initiated polymerization: liposomes in aqueous buffer, maximum dose rate 2.1×10^4 rad/h
Excerpt: The relative sensitivity to ionizing radiation of liposomes composed of either bis-SorbPC (1; FIG. 5), bis-DenPC (2; FIG. 5), or bis-AcrylPC (3; FIG. 5) was investigated. These polymerizable colipids have different reactivities that control the initial rate of polymerization, extent of polymerization, and inhibition by oxygen. The interaction of ionizing radiation with water produces radical species that can initiate radical chain polymerizations.
The rate of the ionizing radiation initiated polymerization (Rp) of liposomes composed of either bis-SorbPC, bis-DenPC, or bis-AcrylPC was determined by the loss of monomer absorption intensity. The maximum dose rate at the liposome samples was 2.1×10^4 rad/h. This intensity could be attenuated if desired. […] Radical polymerization of acryloyl functionalities are very sensitive to oxygen due to the high energy of the propagating species. In contrast, if the bis-AcrylPC liposome suspension was purged of oxygen the monomer could be converted to polymer in a few minutes. The Rp for bis-SorbPC liposomes in water (with or without oxygen present) was about twice that of bis-DenPC liposomes. The liposomes composed of bis-AcrylPC (without oxygen) were about 10 times more reactive than bis-SorbPC liposomes.
The usual experimental protocol for radiation exposure of the liposome samples utilized discontinuous exposure because samples for all the time points were exposed together. […] In some experiments the samples were exposed continuously. The percent loss of monomer depended on the total exposure, but was insensitive to whether the radiation was delivered in a continuous or punctuated manner.

Row | Compound | dependence of extent of polymerization on continuous or discontinuous exposure | time for conversion of monomer to polymer (liposome suspension purged of oxygen) | effect of dissolved oxygen on ionizing radiation initiated polymerization | change in monomer concentration (oxygen present, after 120 minutes of irradiation at the maximum dose rate) | reactivity relative to bis-SorbPC liposomes (without oxygen) | rate of polymerization (Rp) relative to bis-DenPC liposomes (liposomes in water, with or without oxygen present)
1 | bis-AcrylPC | independent of whether the exposure to ionizing radiation was continuous or discontinuous | a few minutes | inhibited by oxygen | no change in the monomer concentration | about 10 times | 
2 | bis-DenPC |  |  | relatively insensitive to the presence of dissolved oxygen |  |  | 
3 | CC=CC=CC(=O)OCCCCCCCCCC(=O)OC[C@H](COP(=O)([O-])OCC[N+](C)(C)C)OC(=O)CCCCCCCCCOC(=O)C=CC=CC [bis-SorbPC] | independent of whether the exposure to ionizing radiation was continuous or discontinuous |  | relatively insensitive to the presence of dissolved oxygen |  |  | about twice
